Legend:
[1] = system: scopolamine-treated rats; test: Passive avoidance (PA) in scopolamine-treated rats; assay type: in vivo, Sprague-Dawley rats
Experimental: Naive male Sprague-Dawley rats, three months old (obtained from Charles River Breeding, U.K.), were used (weighing 200-300 g.). The passive avoidance (PA) test is according to Fisher et al, Neurosci. Lett. 102: 325 (1989), except that in these rats amnesia was induced by scopolamine.
Eight groups of 17-20 naive rats were used. Each group was divided into two subgroups of 7-10 rats each: subgroup 1 was injected with scopolamine HBr (0.5 mg./kg. in saline, s.c., 15 min. before the shock) and subgroup 2 was injected with saline (1 ml./kg., s.c., 15 min. before the shock). Seven of the groups were treated within one minute after the shock with one of the following doses of the tested compound: 0.1, 0.5, 1, 3, 5, 8, 10 mg./kg. (in saline, i.p.) and one group received saline (1 ml./kg., i.p.).
Eight groups of 18-20 naive rats each were used. Each group was divided into two subgroups of 9-10 rats each: subgroup 1 was injected with scopolamine HBr (0.5 mg./kg. in saline, s.c., 15 min. before the shock) and subgroup 2 was injected with saline (1 ml./kg., s.c., 15 min. before the shock). Seven of the groups were treated, within one minute after the shock, with one of the following doses of AF125(N): 0.1, 0.5, 1, 3, 5, 8 or 10 mg./kg. (in saline, i.p.) and one group received saline (1 ml./kg., i.p.).

[2] = biological target: T1, M1 muscarinic receptor (Rattus norvegicus, UniProt P08482); test: Displacement of 3H-QNB from rat cerebral cortex, 50 mM phosphate buffer; assay type: binding
T1 sequence (P08482 1-460): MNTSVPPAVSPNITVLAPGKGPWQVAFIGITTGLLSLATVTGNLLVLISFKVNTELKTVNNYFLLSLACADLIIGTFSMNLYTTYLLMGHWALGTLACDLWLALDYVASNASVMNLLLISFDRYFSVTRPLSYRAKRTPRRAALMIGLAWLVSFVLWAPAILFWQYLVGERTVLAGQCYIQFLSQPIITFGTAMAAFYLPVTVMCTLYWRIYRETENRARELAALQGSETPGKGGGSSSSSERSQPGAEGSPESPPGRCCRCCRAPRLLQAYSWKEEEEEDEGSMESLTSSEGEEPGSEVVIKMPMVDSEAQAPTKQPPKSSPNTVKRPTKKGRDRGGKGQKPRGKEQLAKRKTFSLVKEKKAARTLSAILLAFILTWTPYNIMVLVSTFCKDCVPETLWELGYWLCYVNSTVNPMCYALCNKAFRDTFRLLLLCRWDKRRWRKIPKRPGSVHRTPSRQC

[3] = system: AF64A-treated rats; test: Morris water maze (MWM) in AF64A-treated rats; assay type: in vivo; conditions: i.p.
Experimental: This animal model, which mimics the cholinergic hypofunction and cognitive impairments in SDAT was used as described in Fisher et al (J. Pharmacol. Exptl. Therap, 1991, in the press).
Rats were injected with AF64A (3 nmole/2 µl./side, icv) or saline (2 µl., icv), in presence of phosphate buffer or AF151.

[4] = post-shock AF125 0.1 mg/kg i.p., pre-shock Saline
[5] = post-shock AF125 0.1 mg/kg i.p., pre-shock Scopolamine
[6] = post-shock AF125 0.5 mg/kg i.p., pre-shock Saline
[7] = post-shock AF125 0.5 mg/kg i.p., pre-shock Scopolamine
[8] = post-shock AF125 1.0 mg/kg i.p., pre-shock Saline
[9] = post-shock AF125 1.0 mg/kg i.p., pre-shock Scopolamine
[10] = post-shock AF125 3.0 mg/kg i.p., pre-shock Saline
[11] = post-shock AF125 3.0 mg/kg i.p., pre-shock Scopolamine
[12] = post-shock AF125 5.0 mg/kg i.p., pre-shock Saline
[13] = post-shock AF125 5.0 mg/kg i.p., pre-shock Scopolamine
[14] = post-shock AF125 8.0 mg/kg i.p., pre-shock Saline
[15] = post-shock AF125 8.0 mg/kg i.p., pre-shock Scopolamine
[16] = post-shock AF125 10.0 mg/kg i.p., pre-shock Saline
[17] = post-shock AF125 10.0 mg/kg i.p., pre-shock Scopolamine

With CC1=NCC2(CN3CCC2CC3)O1 (racemic) [AF125, 2-Methyl-spiro(1,3 oxazoline-5,3')quinuclidine] the side effects ([1]; 3 mg./kg. i.p., pre-shock saline treated rats) was “slight diarrhea”, the side effects ([1]; 5 mg./kg. i.p., pre-shock saline treated rats) was “stronger diarrhea” and the side effects ([1]; 8 and 10 mg./kg. i.p., pre-shock saline treated rats) was “severe diarrhea with lacrimation”. The “Initial latency, Mean” value [1, 4] was 49.5, the “Retention latency, Mean” value [1, 4] was 572.8 and the “Initial latency, Mean” value [1, 5] was 33.6. For the same compound, the “Retention latency, Mean” value [1, 5] was 128.8, the “Initial latency, Mean” value [1, 6] was 42.0 and the “Retention latency, Mean” value [1, 6] was 600.0. The “Initial latency, Mean” value [1, 7] was 47.4, the “Retention latency, Mean” value [1, 7] was 222.7 and the “Initial latency, Mean” value [1, 8] was 36.0. For the same compound, the “Retention latency, Mean” value [1, 8] was 555.8, the “Initial latency, Mean” value [1, 9] was 23.3 and the “Retention latency, Mean” value [1, 9] was 261.2. For the same compound, the “Initial latency, Mean” value [1, 10] was 51.9, the “Retention latency, Mean” value [1, 10] was 530.4 and the “Initial latency, Mean” value [1, 11] was 47.3. For the same compound, the “Retention latency, Mean” value [1, 11] was 296.0, the “Initial latency, Mean” value [1, 12] was 34.7 and the “Retention latency, Mean” value [1, 12] was 426.7. The “Initial latency, Mean” value [1, 13] was 51.3, the “Retention latency, Mean” value [1, 13] was 227.3 and the “Initial latency, Mean” value [1, 14] was 41.2. The “Retention latency, Mean” value [1, 14] was 594.1, the “Initial latency, Mean” value [1, 15] was 53.9 and the “Retention latency, Mean” value [1, 15] was 294.9. For the same compound, the “Initial latency, Mean” value [1, 16] was 46.3, the “Retention latency, Mean” value [1, 16] was 498.3 and the “Initial latency, Mean” value [1, 17] was 45.9. For the same compound, the “Retention latency, Mean” value [1, 17] was 288.3 and the side effects ([1]; pre-shock scopolamine treated rats) was “did not exhibit any side effects”.

In the case of CC1=NCC2(CCN(C)CC2)O1 [AF150, 2-Methyl-spiro(1,3-oxazoline-5,4')-1'-methylpiperidine], the “RATIOS c:a” value ([2]; KH2 cerebellum : KH1 cortex (3H-QNB)) is reported as 3.5, the “RATIOS b:a” value ([2]; KL1 : KH1 cortex (3H-QNB)) is reported as 49 and the “RATIOS d:b” value ([2]; KL2 cerebellum : KL1 cortex (3H-QNB)) is reported as 17. The “% H1” value ([2]; cortex, Table 5) was 13% and the “% L1” value ([2]; cortex, Table 5) was 87%.

In the case of CC1=NC2(CCN(C)CC2)CO1 [AF151, 1-methylpiperidine-4-spiro-4'-(2'-methyl-1',3'-oxazoline)], the Path length ([3]; icv AF64A, AF151 0.07 mg./kg., Block 1) is reported as 729.0± 98.2 cm, the Path length ([3]; icv AF64A, AF151 0.07 mg./kg., Block 2) is reported as 918.1±124.3 cm and the Path length ([3]; icv AF64A, AF151 0.07 mg./kg., Block 3) is reported as 743.1±151.1 cm. For the same compound, the Path length ([3]; icv AF64A, AF151 0.07 mg./kg., Block 4) was 574.9±101.1 cm, the Path length ([3]; icv AF64A, AF151 0.07 mg./kg., Reversal) was 602.9± 97.9 cm and the Path length ([3]; icv AF64A, AF151 0.3 mg./kg., Block 1) was 862.3±151.0 cm. For the same compound, the Path length ([3]; icv AF64A, AF151 0.3 mg./kg., Block 2) was 843.5±197.5 cm, the Path length ([3]; icv AF64A, AF151 0.3 mg./kg., Block 3) was 539.9±146.2 cm and the Path length ([3]; icv AF64A, AF151 0.3 mg./kg., Block 4) was 297.9± 60.4 cm. For the same compound, the Path length ([3]; icv AF64A, AF151 0.3 mg./kg., Reversal) was 390.5± 77.0 cm, the Path length ([3]; icv AF64A, AF151 1.0 mg./kg., Block 1) was 656.6±107.6 cm and the Path length ([3]; icv AF64A, AF151 1.0 mg./kg., Block 2) was 802.7±111.1 cm. For the same compound, the Path length ([3]; icv AF64A, AF151 1.0 mg./kg., Block 3) was 795.0±131.3 cm, the Path length ([3]; icv AF64A, AF151 1.0 mg./kg., Block 4) was 434.4± 33.0 cm and the Path length ([3]; icv AF64A, AF151 1.0 mg./kg., Reversal) was 606.0± 60.0 cm. The Path length ([3]; icv Sal., AF151 0.07 mg./kg., Block 1) was 490.6± 74.0 cm, the Path length ([3]; icv Sal., AF151 0.07 mg./kg., Block 2) was 562.9± 92.7 cm and the Path length ([3]; icv Sal., AF151 0.07 mg./kg., Block 3) was 429.2± 76.5 cm. It also gave a Path length ([3]; icv Sal., AF151 0.07 mg./kg., Block 4) of 278.0± 44.0 cm, a Path length ([3]; icv Sal., AF151 0.07 mg./kg., Reversal) of 453.9± 76.0 cm and a Path length ([3]; icv Sal., AF151 0.3 mg./kg., Block 1) of 517.8± 45.3 cm. It also gave a Path length ([3]; icv Sal., AF151 0.3 mg./kg., Block 2) of 365.1± 58.4 cm, a Path length ([3]; icv Sal., AF151 0.3 mg./kg., Block 3) of 424.6± 92.3 cm and a Path length ([3]; icv Sal., AF151 0.3 mg./kg., Block 4) of 346.7± 64.4 cm. The Path length ([3]; icv Sal., AF151 0.3 mg./kg., Reversal) was 306.8± 43.3 cm, the Path length ([3]; icv Sal., AF151 1.0 mg./kg., Block 1) was 607.4± 90.6 cm and the Path length ([3]; icv Sal., AF151 1.0 mg./kg., Block 2) was 440.2± 90.1 cm. The Path length ([3]; icv Sal., AF151 1.0 mg./kg., Block 3) was 408.1± 97.1 cm, the Path length ([3]; icv Sal., AF151 1.0 mg./kg., Block 4) was 233.8± 30.6 cm and the Path length ([3]; icv Sal., AF151 1.0 mg./kg., Reversal) was 450.0± 93.5 cm.

Source: patent EP0452101B1, “Spiro bridged and unbridged heterocyclic compounds” (ISRAEL INSTITUTE FOR BIOLOGICAL RESEARCH, priority 1990, dated 1991)
